According to patent publication US6737383B1, “Herbicidal oxadiazolidines” (priority 1999, dated 2004):

Columns and labels:
bedstraw = test: Test B pre/postemergence bedstraw; type: in vivo, Galium aparine
Procedure, shortened: (§1)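 Test chemicals in a non-phytotoxic solvent mixture with surfactant were sprayed preemergence onto planted seeds and postemergence onto plants 2 to 18 cm tall (1- to 4-leaf stage). After twelve to sixteen days in a greenhouse, injury was visually rated against untreated controls from 0 (no effect) to 10 (complete control).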

blackgrass = test: Test B pre/postemergence blackgrass; type: in vivo, Alopecurus myosuroides
Procedure, shortened: as §1

surinam grass = test: Test B pre/postemergence surinam grass; type: in vivo, Brachiaria decumbens
Procedure, shortened: as §1

corn = test: Test B pre/postemergence corn; type: in vivo, Zea mays
Procedure, shortened: as §1

crabgrass = test: Test B pre/postemergence crabgrass; type: in vivo, Digitaria sanguinalis
Procedure, shortened: as §1

giant foxtail = test: Test B pre/postemergence giant foxtail; type: in vivo, Setaria faberii
Procedure, shortened: as §1

morningglory = test: Test B pre/postemergence morningglory; type: in vivo, Ipomoea hederacea
Procedure, shortened: as §1

pigweed = test: Test B pre/postemergence pigweed; type: in vivo, Amaranthus retroflexus
Procedure, shortened: as §1

rape = test: Test B pre/postemergence rape; type: in vivo, Brassica napus
Procedure, shortened: as §1

soybean = test: Test B pre/postemergence soybean; type: in vivo, Glycine max
Procedure, shortened: as §1

velvetleaf = test: Test B pre/postemergence velvetleaf; type: in vivo, Abutilon theophrasti
Procedure, shortened: as §1

wheat = test: Test B pre/postemergence wheat; type: in vivo, Triticum aestivum
Procedure, shortened: as §1

wild oat = test: Test B pre/postemergence wild oat; type: in vivo, Avena fatua
Procedure, shortened: as §1

purple nutsedge = test: Test B pre/postemergence purple nutsedge; type: in vivo, Cyperus rotundus
Procedure, shortened: as §1

rice = test: Test B flood test rice; type: in vivo, Oryza sativa
Procedure, shortened: (§2)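 Each value is a visual injury score relative to controls, with 10 meaning complete control and 0 no effect. Evaluation took place twelve to sixteen days after the 2-leaf-stage plants were treated and kept in the greenhouse.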

duck salad = test: Test B flood test duck salad; type: in vivo, Heteranthera limosa
Procedure, shortened: as §2

[1] = Postemergence, Rate 62 g/ha, scale 0 to 10, 0 is no effect, 10 is complete control
[2] = Postemergence, Rate 250 g/ha, scale 0 to 10, 0 no effect, 10 complete control
[3] = Preemergence, Rate 62 g/ha, scale 0 to 10 (0 no effect, 10 complete control)
[4] = Preemergence, Rate 125 g/ha, scale 0 to 10 (0 no effect, 10 complete control)
[5] = Preemergence, Rate 250 g/ha, scale of 0 to 10 where 0 is no effect and 10 is complete control
[6] = Rate 125 g/ha, Postemergence, scale 0 to 10, 0 no effect, 10 complete control
[7] = Rate 500 g/ha, Postemergence, scale 0 to 10, 0 no effect, 10 complete control
[8] = Preemergence, Rate 500 g/ha, scale 0 (no effect) to 10 (complete control)
[9] = Rate 125 g/ha, Postemergence section (flood test species), scale 0 to 10, 0 no effect, 10 complete control
[10] = Rate 500 g/ha, listed under Postemergence (flood test species), scale 0 to 10, 0 no effect, 10 complete control
[11] = flood test, listed under Postemergence, Rate 250 g/ha, scale 0 to 10, 0 no effect, 10 complete control

Cc1cccc(C(C)C)c1-n1c(=O)on(C(=O)N(c2ccc(Cl)cc2)C(C)C)c1=O [Compound 64]
Bedstraw plant response rating (bedstraw; [1]): 0
Bedstraw plant response rating (bedstraw; [2]): 0
Bedstraw plant response rating (bedstraw; [3]): 0
Plant response rating, Bedstraw (bedstraw; [4]): 0
Plant response rating, Bedstraw (bedstraw; [5]): 0
Bedstraw plant response rating (bedstraw; [6]): 0
Bedstraw plant response rating (bedstraw; [7]): 0
Blackgrass plant response rating (blackgrass; [1]): 0
Blackgrass plant response rating (blackgrass; [2]): 0
Blackgrass plant response rating (blackgrass; [3]): 0
Plant response rating, Blackgrass (blackgrass; [4]): 0
Plant response rating, Blackgrass (blackgrass; [5]): 0
Blackgrass plant response rating (blackgrass; [8]): 0
Blackgrass plant response rating (blackgrass; [6]): 0
Blackgrass plant response rating (blackgrass; [7]): 0
B. signalgrass plant response rating (surinam grass; [1]): 0
B. signalgrass plant response rating (surinam grass; [2]): 0
B. signalgrass plant response rating (surinam grass; [3]): 0
Plant response rating, B. signalgrass (surinam grass; [4]): 0
Plant response rating, B. signalgrass (surinam grass; [5]): 0
B. signalgrass plant response rating (surinam grass; [8]): 0
B. signalgrass plant response rating (surinam grass; [6]): 0
B. signalgrass plant response rating (surinam grass; Rate 500 g/ha, Postemergence, scale of 0 to 10 where 0 is no effect and 10 is complete control): 0
Corn plant response rating (corn; [1]): 0
Corn plant response rating (corn; [2]): 0
Corn plant response rating (corn; [3]): 0
Plant response rating, Corn (corn; [4]): 0
Plant response rating, Corn (corn; [5]): 0
Corn plant response rating (corn; [8]): 0
Corn plant response rating (corn; [6]): 0
Corn plant response rating (corn; [7]): 0
Crabgrass plant response rating (crabgrass; [1]): 0
Crabgrass plant response rating (crabgrass; [2]): 0
Crabgrass plant response rating (crabgrass; [3]): 0
Plant response rating, Crabgrass (crabgrass; [4]): 0
Plant response rating, Crabgrass (crabgrass; [5]): 2
Crabgrass plant response rating (crabgrass; [8]): 3
Crabgrass plant response rating (crabgrass; [6]): 0
Crabgrass plant response rating (crabgrass; [7]): 0
Giant foxtail plant response rating (giant foxtail; [1]): 0
Giant foxtail plant response rating (giant foxtail; [2]): 0
Giant foxtail plant response rating (giant foxtail; [3]): 0
Plant response rating, Giant foxtail (giant foxtail; [4]): 0
Plant response rating, Giant foxtail (giant foxtail; [5]): 3
Giant foxtail plant response rating (giant foxtail; [8]): 4
Giant foxtail plant response rating (giant foxtail; [6]): 0
Giant foxtail plant response rating (giant foxtail; [7]): 0
Morningglory plant response rating (morningglory; [1]): 0
Morningglory plant response rating (morningglory; [2]): 0
Morningglory plant response rating (morningglory; [3]): 0
Plant response rating, Morningglory (morningglory; [4]): 0
Plant response rating, Morningglory (morningglory; [5]): 0
Morningglory plant response rating (morningglory; [8]): 0
Morningglory plant response rating (morningglory; [6]): 0
Morningglory plant response rating (morningglory; [7]): 0
Redroot pigweed plant response rating (pigweed; [1]): 0
Redroot pigweed plant response rating (pigweed; [2]): 0
Redroot pigweed plant response rating (pigweed; [3]): 0
Plant response rating, Redroot pigweed (pigweed; [4]): 0
Plant response rating, Redroot pigweed (pigweed; [5]): 0
Redroot pigweed plant response rating (pigweed; [8]): 0
Redroot pigweed plant response rating (pigweed; [6]): 0
Redroot pigweed plant response rating (pigweed; [7]): 0
Rape plant response rating (rape; [1]): 0
Rape plant response rating (rape; [2]): 0
Rape plant response rating (rape; [3]): 0
Plant response rating, Rape (rape; [4]): 0
Plant response rating, Rape (rape; [5]): 0
Rape plant response rating (rape; [8]): 0
Rape plant response rating (rape; [6]): 0
Rape plant response rating (rape; [7]): 0
Soybean plant response rating (soybean; [1]): 0
Soybean plant response rating (soybean; [2]): 0
Soybean plant response rating (soybean; [3]): 0
Plant response rating, Soybean (soybean; [4]): 0
Plant response rating, Soybean (soybean; [5]): 0
Soybean plant response rating (soybean; [8]): 0
Soybean plant response rating (soybean; [6]): 0
Soybean plant response rating (soybean; [7]): 1
Velvetleaf plant response rating (velvetleaf; [1]): 0
Velvetleaf plant response rating (velvetleaf; [2]): 0
Velvetleaf plant response rating (velvetleaf; [3]): 0
Plant response rating, Velvetleaf (velvetleaf; [4]): 0
Plant response rating, Velvetleaf (velvetleaf; [5]): 0
Velvetleaf plant response rating (velvetleaf; [8]): 0
Velvetleaf plant response rating (velvetleaf; [6]): 0
Velvetleaf plant response rating (velvetleaf; [7]): 0
Wheat plant response rating (wheat; [1]): 0
Wheat plant response rating (wheat; [2]): 0
Wheat plant response rating (wheat; [3]): 0
Plant response rating, Wheat (wheat; [4]): 0
Plant response rating, Wheat (wheat; [5]): 0
Wheat plant response rating (wheat; [8]): 0
Wheat plant response rating (wheat; [6]): 0
Wheat plant response rating (wheat; [7]): 0
Wild oats plant response rating (wild oat; [1]): 0
Wild oats plant response rating (wild oat; [2]): 0
Wild oats plant response rating (wild oat; [3]): 0
Plant response rating, Wild oats (wild oat; [4]): 0
Plant response rating, Wild oats (wild oat; [5]): 0
Wild oats plant response rating (wild oat; [8]): 0
Wild oats plant response rating (wild oat; [6]): 0
Wild oats plant response rating (wild oat; [7]): 0
Nutsedge plant response rating (purple nutsedge; [1]): 0
Nutsedge plant response rating (purple nutsedge; [2]): 0
Nutsedge plant response rating (purple nutsedge; [3]): 0
Plant response rating, Nutsedge (purple nutsedge; [4]): 0
Plant response rating, Nutsedge (purple nutsedge; [5]): 0
Nutsedge plant response rating (purple nutsedge; [6]): 0
Nutsedge plant response rating (purple nutsedge; [7]): 0
Rice plant response rating (rice; [1]): 0
Rice plant response rating (rice; [9]): 0
Rice plant response rating (rice; [10]): 0
Rice plant response rating (rice; [11]): 0
Ducksalad plant response rating (duck salad; [1]): 0
Ducksalad plant response rating (duck salad; [9]): 0
Ducksalad plant response rating (duck salad; [10]): 0
Ducksalad plant response rating (duck salad; [11]): 0
